# Results published in article PMC6804243, “Small-Molecule Inhibition of UBE2T/FANCL-Mediated Ubiquitylation in the Fanconi Anemia Pathway” (ACS Chemical Biology, 2019).
# Entries after “also recorded” stand apart in the source; their conditions may differ.
# Test system: FANCD2 foci and γH2AX in U2OS cells
# Experiment: High-throughput high content indirect immunofluorescence (FANCD2 foci, γH2AX)
# Type: cell-based
# Details: for γH2AX positive cells / γH2AX levels: CU1 200 μM or CU2 500 μM in combination with HU (2.5 mM, 8 h) or cisplatin (10 μM, 8 h); for H2AX positive nuclei, Experiment 1 / H2AX positive nuclei, Experiment 2 / H2AX positive nuclei, Experiment 3: CU1 200 μM, raw data; for H2AX positive nuclei, Experiment 1 / H2AX positive nuclei, Experiment 2 / H2AX positive nuclei, Experiment 3 / H2AX positive nuclei, Totals: CU2 500 μM, HU 2.5 mM 8 h, cisplatin 10 μM 8 h; for number of FANCD2 foci per cell: 8 h, CU1 200 μM or CU2 500 μM; for H2AX positive nuclei, Totals: sum of experiments 1-3, CU1 200 μM
# Protocol: In response to DNA damage, mUb-FANCD2 accumulates at sites of DNA lesions to form foci, promote DNA-damage sensing, activate cell-cycle checkpoints, and promote DNA repair.[23] Therefore, we employed high-throughput high-content indirect immunofluorescence studies to examine the effect of CU1 and CU2 on mUb-FANCD2 focus formation. The experimental format used was similar to the immunoblot-based experiments, excepting that, following treatment with HU (2.5 mM for 8 h) or cisplatin (10 μM for 8 h), cells were fixed, permeabilized and stained with specific FANCD2 primary and fluorescent secondary antibodies. In addition to monitoring mUb-FANCD2 foci, γH2AX was evaluated as a marker of DNA damage induction, and cell nuclei were visualized by 4′,6-diamidino-2-phenylindole (DAPI) staining. […] These observations are in accord with the immunoblot-based experiments wherein reductions in mUb-FANCD2 were observed (Figure 3a).
# Figure 4 Further cell-based assays with CU1 and CU2: (a, b) Representative immunofluorescence images of U2OS cells treated with HU (2.5 mM, 8 h) or cisplatin (10 μM, 8 h) in the presence or absence of CU1 (200 μM) or CU2 (500 μM). (c) Quantification of the number of FANCD2 foci in cells treated as in panels (a) and (b). Data accumulated over three independent experiments, each consisting of three technical replicas. (d) IncuCyte analysis of U2OS cells treated with or without carboplatin (15 μM) and CU2 (250 μM). Mean calculated from three wells, four images per well. (HU = DMSO + HU, cisplatin = DMSO + cisplatin). […]
# buffer (1 hour at room temperature) followed by three washes with PBST. Cells were then counterstained with DAPI (25 µg/mL) and mounted using Vectashield […]
# High-throughput high content indirect immunofluorescence. U2OS cells, seeded in a 96-well plate, were treated with compound for 1 hour followed by 2.5 mM HU or 10 µM cisplatin for 8 hours. Cells were washed 3 times with wash buffer (1xPBS, 0.1% Tween-20) before being fixed in 2% paraformaldehyde (w/v) for 20 minutes at 23 °C. The cells were then washed a further 3 times in wash buffer before being stored overnight at 4°C in the final wash. Next day, the cells were permeabilized using 1xPBS, 0.5% Triton X-100 for 15 minutes at 23 °C and then washed 3 times with wash buffer before blocking with 5% BSA in 1xPBS, 0.1% Tween-20 for 30 minutes at 23 °C. After washing 3 times with wash buffer, the cells were incubated for 1 hour at 23 °C in the presence of primary antibodies (1:50 FANCD2, Santa Cruz, mouse monoclonal and 1:250 γH2AX, Cell Signalling, rabbit) in 5% BSA in wash buffer. After incubation in the presence of primary antibodies, the cells were washed 3 times with wash buffer before being incubated with secondary antibodies in 5% BSA in wash buffer for 1 hour in the dark at 23 °C. The secondary antibodies used were goat anti-mouse AlexaFluor 488 and goat anti-rabbit AlexaFluor 594 (both from Molecular Probes, Invitrogen). The cells were then washed a further 3 times with wash buffer before being stained in the presence of 2 µg/ml DAPI (Sigma D9542) in wash buffer for 10 minutes in the dark at 23 °C. After DAPI staining, the cells were washed 3 more times with wash buffer and stored in the final wash until ready for imaging.
# A spinning-disk Opera PhenixTM (Perkin Elmer) microscope equipped with a 40x water immersion objective was employed to acquire 10 confocal images for each well in a single optimized focal plane comprising three fluorescence channels: 405, 488 and 568 nm for DAPI, Alexa Fluor 488 and Alexa Fluor 594, respectively. Image analysis and evaluation was done using Harmony High-Content Imaging and Analysis software. DAPI staining (405 nm) was used to segment nuclei, which were further gated for the presence of γH2AX staining
# [1] = in the presence of HU 2.5 mM, relative to HU alone
# [2] = in the presence of cisplatin 10 μM, relative to cisplatin alone
SMILES,γH2AX positive cells / γH2AX levels,"H2AX positive nuclei, Experiment 1","H2AX positive nuclei, Experiment 2","H2AX positive nuclei, Experiment 3",number of FANCD2 foci per cell [1],number of FANCD2 foci per cell [2],"H2AX positive nuclei, Totals"
NCCN1C(=O)CC[C@H]2CN(Cc3cccc(-c4ccco4)c3)CC[C@H]21 [CU1],no reduction in γH2AX positive cells; also recorded: do not significantly affect,40,279,126,clear reduction in the number of FANCD2 foci per cell,clear reduction in the number of FANCD2 foci per cell,445
CCN1CCN(c2cc(C)nc3nc(CN4CCCCC4C)nn23)CC1 (centres unmarked) [CU2],no reduction in γH2AX positive cells; also recorded: do not significantly affect,56,303,79,clear reduction in the number of FANCD2 foci per cell,clear reduction in the number of FANCD2 foci per cell,438
